Results published in patent US20110281788A1, “ANTI FUNGAL THERAPY” (priority 2008, published 2011).
Like-named read-outs stand apart in the source and are kept apart here. Where a SMILES comes first, the peptide text is derived from it. Where no end group is shown, it is not given here.

Assays:
C. albicans SC5314 = type: cell-based, Candida albicans; conditions: RPMI-1640, <0.5 synergy, >4 antagonism, 0.5 to 4 no interaction
Procedure: (§1) 96-well micro-titre plate (Greiner Bio-one Ltd, Stonehouse, UK) wells were filled with 150 μl MEB or RPMI-1640, 2% MOPS (Sigma), pH 7 and concentrations of either peptides or caspofungin alone, or combinations of peptides with caspofungin. Approximately 500 cells from mid-exponential phase cultures of the yeast strains described above were then added to each well. Plates were incubated at 30° C. for 48 hours and scanned as described above.
(§2) Fractional inhibitory concentration (FIC) indices for combinations of caspofungin or anidulafungin with various antimicrobial peptides calculated from chequerboard assays of visible growth inhibition of three Candida strains tested in RPMI-1640. IC values highlighted in grey indicate combinations where no synergy was observed. Fractional Inhibitory Concentration (FIC)=[…] where <0.5 synergy, >4 antagonism and 0.5 to 4 no interaction. (Odds, F. C. (2003) Synergy, antagonism, and what the chequerboard puts between them. J. Antimic. Chemother.) N/A—not tested.

yeast = assay: Liquid culture assay of yeast growth inhibition, OD600 growth curves (FIG. 4); type: cell-based; conditions: sub-inhibitory peptide combined with sub-inhibitory caspofungin
Procedure: The lines represent: Blue—untreated yeast culture alone; Yellow—yeast culture in the presence of a subinhibitory concentration of caspofungin alone; Green—yeast culture in the presence of a subinhibitory concentration of an antimicrobial peptide alone; Red—culture in the presence of a combination of sub-inhibitory caspofungin with sub-inhibitory peptide.
Sterile MEB, pH 7 was added (300 μl) to each well of 48-well microtitre plate (Greiner Bio-one Ltd, Stonehouse, UK) followed by appropriate concentrations of each peptide alone, caspofungin alone and various combinations of peptides with caspofungin. The wells were then inoculated with mid-exponential phase yeast cultures to give starting cell numbers of 1000 cells per well. […] OD600 readings were taken every 15 minutes. Data was analysed in Microsoft Excel.

[1] = tested on: yeast (Saccharomyces cerevisiae); assay: Disc diffusion assay of yeast growth inhibition (FIG. 1 A-G); type: cell-based
From the text: The data shown in FIG. 1(h)-(n) are for the highly resistant yeast Candida glabrata which is difficult to treat due to its high intrinsic resistance to traditional antifungals. The data shown in FIGS. 1(o)-(u) are for Candida albicans. As above, the panels (h) through (u) show the effect of an echinocandin compound, an antimicrobial peptide and a combination of the two on Candida glabrata and Candida albicans.
Sterile filter paper discs (6 mm, Aa, Whatman) were impregnated with either, peptides or caspofungin alone, or peptides and caspofungin together, and left in sterile Petri dishes overnight at room temperature to dry. Following this, 100 μl of mid-exponential phase culture of yeast was spread onto the surface of MEB, pH 7 plus 2% agarose plates and left to dry for 1 h at room temperature. MEB plates were made with 2% agarose rather than agar because the agar inhibited the action of the antimicrobial peptides. Discs containing the various antifungal combinations were then applied to the surface and the plates were incubated at 30° C. for 48 h. Images showing the zones of inhibition were obtained by scanning the plates using an ImageScanner (GE Healthcare UK Ltd, Chalfont St Giles, UK) with ImageMaster Labscan v 3.00 software (GE Healthcare UK Ltd). Images were annotated using Microsoft PhotoDraw.

[2] = tested on: C. glabrata (Hospital isolate); type: cell-based, Candida glabrata; conditions: RPMI-1640, <0.5 synergy, >4 antagonism, 0.5 to 4 no interaction
Procedure: as §1, §2

[3] = tested on: C. albicans (Hospital isolate); type: cell-based, Candida albicans; conditions: RPMI-1640, <0.5 synergy, >4 antagonism, 0.5 to 4 no interaction
Procedure: as §1, §2

[4] = peptide combined with anidulafungin
[5] = peptide combined with caspofungin
[6] = peptide applied together with caspofungin
[7] = substance alone, at the concentrations displayed

| Molecule | Fractional inhibitory concentration (FIC) index (C. albicans SC5314; [4]) | Fractional inhibitory concentration (FIC) index (C. albicans SC5314; [5]) | yeast growth (OD600) over 24 h in microtitre plate wells (yeast) | zones of clearing around impregnated filter paper discs on agar plates [1, 6] | zones of clearing around impregnated filter paper discs on agar plates [1, 7] | Fractional inhibitory concentration (FIC) index [2, 4] | Fractional inhibitory concentration (FIC) index [2, 5] | Fractional inhibitory concentration (FIC) index [3, 4] | Fractional inhibitory concentration (FIC) index [3, 5] |
| --- | --- | --- | --- | --- | --- | --- | --- | --- | --- |
| Colistin sulfate | 0.230 | 0.249 | – | – | – | – | – | – | – |
| ALWKNMLKGIGKLAGK [DsS3(1-16), dermaseptin S3(1-16)] | – | – | complete abolition of yeast growth | Evident zones of clearing | no zones of clearing visible | – | – | – | – |
| Polymyxin B | 0.590 | 0.310 | – | – | – | – | – | – | – |
| GIGKFLHSAKKFGKAFVGEIMNS [Magainin 2, magainin 2] | 0.095 | 0.144 | complete abolition of yeast growth | very clear zones of clearing | minimal effect on yeast growth | 0.376 | 0.278 | 0.087 | 0.135 |
| CC[C@H](C)C[C@H](C)CCCCCCCCC(=O)N[C@H]1C[C@@H](O)[C@@H](NCCN)NC(=O)[C@@H]2[C@@H](O)CCN2C(=O)[C@H]([C@H](O)CCN)NC(=O)[C@H]([C@H](O)[C@@H](O)c2ccc(O)cc2)NC(=O)[C@@H]2C[C@@H](O)CN2C(=O)[C@H]([C@@H](C)O)NC1=O [caspofungin, 1-[(4R,5S)-5[(2-aminoethyl)amino]-N^2-(10,12-dimethyl-1-oxotetradecyl)-4-hydroxy-L-ornithine]-5-[(3R)-3-hydroxy-L-ornithine]pneumocandin B0] | – | – | – | – | no zones of clearing | – | – | – | – |
| CC[C@H](C)[C@H](NC(=O)[C@H](CCSC)NC(=O)[C@H](C)NC(=O)[C@@H]1CCCN1C(=O)[C@@H](NC(=O)[C@@H](NC(=O)[C@H](CCCCN)NC(=O)[C@@H](NC(=O)[C@H](CC(C)C)NC(=O)CNC(=O)CNC(=O)[C@H](CC(C)C)NC(=O)[C@@H](N)Cc1ccccc1)[C@@H](C)CC)[C@@H](C)CC)C(C)C)C(=O)N[C@H]1CSSC[C@@H](C(=O)O)NC(=O)[C@H](CCCCN)NC(=O)[C@H](CCCCN)NC(=O)[C@H]([C@@H](C)O)NC(=O)[C@H](C(C)C)NC(=O)[C@H](C)NC1=O [Ranalexin, ranalexin] (HELM PEPTIDE1{F.L.G.G.L.I.K.I.V.P.A.M.I.C.A.V.T.K.K.C}$PEPTIDE1,PEPTIDE1,14:R3-20:R3$$$V2.0; N-terminus and C-terminus assumed; bridges inferred) | – | – | complete abolition of yeast growth | very clear zones of clearing | minimal effect on yeast growth | – | – | – | – |
